These results are taken from US12465590B2, “Oxalamido-substituted tricyclic inhibitors of hepatitis b virus” (priority 2019, dated 2025).

The structures appear in SMILES notation.

The first test relates to HBV. Description: HBV inhibition assay in HepAD38 cells (extracellular HBV DNA by direct qPCR). The test is classed as cell-based, HBV genotype D subtype ayw. Particulars: 96 hours, read-out: HBV inh EC50. The source says:
HepAD38 cell line (Ladner et al., Antimicrob Agents Chemother, 1997, 41, 1715-20) was used for HBV inhibition assays. HepAD38 is a subclone, derived from hepatoblastoma cell line HepG2 (ATCC® Number: HB-8065), that expresses HBV genome (genotype D subtype ayw) under the transcriptional control of a tetracycline-responsive promoter in a TET-OFF system: addition of doxycycline, an antibiotic belonging to the class of tetracycline, suppresses HBV replication, while its removal switches on the process allowing HBV viral particles release in the cell supernatant. HepAD38 cell line is maintained in DMEM/F12, supplemented with 10% of fetal bovine serum, 1% of glutamine, 1% of penicillin/streptomycin, 0.4 mg/ml G418 and 0.3 ug/ml tetracycline. For the HBV inhibition assay, doxycycline-free medium is used in order to allow virion production.
HBV inhibition activity in vitro was performed in 96 multiwell plates. During the initial (primary) screening, compounds were first tested in triplicates at concentrations of 0.02 μM, 0.1 μM, 0.5 μM and 1 μM. For selected compounds, an 8-point dose-response curve was obtained using 1:2 serial dilutions (starting from 0.01 μM, 0.1 μM, 0.4 μM or 5 μM, depending on the degree of inhibition observed during the primary screening). From the dose-response curves, half maximal effective concentration (EC50) could be calculated (see also below).
In more detail, compounds—typically dissolved in DMSO stock solutions—were diluted to 2× the final desired concentration in 100 μl of the above medium (without doxycycline) and plated in three replicates in the 96-well plates.
Simultaneously, HepAD38 cells—extensively pre-washed in doxycycline-free medium in order to induce HBV production—were suspended at 2*10^4 cells in 100 μl of doxycycline-free medium and added to each well of the plate, to yield a final assay volume of 200 μl.
DMSO, used for stock solutions and compounds dilutions, was always present in the assays at a final concentration of 0.5%.
Plates were then incubated 96 hours at 37° C. and then subjected to cell viability assays and extracellular HBV quantification, in order to evaluate both the cytotoxic potential and the antiviral activity of compounds.
Cytotoxicity was assessed by a commercial fluorescence assay that measures the metabolic activity of cells, directly related to cell viability (Cell Titer Blue, Promega). For each compound, cytotoxicity was evaluated at the same concentration employed to evaluate its anti-HBV activity. Anti-HBV activity was evaluated by quantification of extracellular HBV DNA with direct qPCR. In particular, supernatant was collected and centrifuged for cell debris clarification, viral DNA was extracted from virions by addition of lysis buffer (1 mM 1,4-dithiothreitol, 0.2% sodium dodecyl sulphate) and incubated at 95° C. for 10 min. Samples were then diluted 1:40 and real time PCR amplification was performed with SYBR green assay (Power SYBR™ Green PCR Master Mix-Thermo Fisher Scientific) and specific HBV primer (HBV-DF:5′-[…]-3′ (SEQ ID No. 1), HBV-DR:5′-[…]-3′ (SEQ ID No. 2)).
Antiviral activity data for each compound are reported as EC50 value (see Table 1 legend). Excel and Graphpad Prism programs are typically used for data elaboration and EC50 calculation.
(In qPCR the cycle at which signal appears reflects the starting amount.)
Regarding `Cc1cc(NC(=O)c2c3c(cn2C)S(=O)(=O)NC2CN(C(=O)C(=O)N4CC(F)(F)C4)CCC2CO3)ccc1F` (racemic) [Example E70, Trans-7-(2-(3,3-difluoroazetidin-1-yl)-2-oxoacetyl)-N-(4-fluoro-3-methylphenyl)-2-methyl-5,5a,6,7,8,9,9a,10-octahydro-2H-pyrido[3,4-f]pyrrolo[3,4-b][1,4,5]oxathiazocine-1-carboxamide 4,4-dioxide], the EC50 (as a rule, the concentration at which the effect is half-maximal) is < 500 nM.
With `Cc1cc(NC(=O)c2c3c(cn2C)S(=O)(=O)NC2CN(C(=O)C(=O)N[C@@H](C)C(F)(F)F)CCC2CO3)ccc1F` (mixture of isomers) [Example E71, Trans-N-(4-fluoro-3-methylphenyl)-2-methyl-7-(2-oxo-2-(((S)-1,1,1-trifluoropropan-2-yl)amino)acetyl)-5,5a,6,7,8,9,9a,10-octahydro-2H-pyrido[3,4-f]pyrrolo[3,4-b][1,4,5]oxathiazocine-1-carboxamide 4,4-dioxide], the EC50 was < 500 nM.
Same read-out and setting: in the case of `Cc1cc(NC(=O)c2c3c(cn2C)S(=O)(=O)NC2CCN(C(=O)C(=O)N[C@H](C)C(F)(F)F)CC2CO3)ccc1F` (mixture of isomers) [Example E72, Cis-N-(4-fluoro-3-methylphenyl)-2-methyl-8-(2-oxo-2-(((R)-1,1,1-trifluoropropan-2-yl)amino)acetyl)-5,5a,6,7,8,9,9a,10-octahydro-2H-pyrido[4,3-f]pyrrolo[3,4-b][1,4,5]oxathiazocine-1-carboxamide 4,4-dioxide] it was < 500 nM.
With `Cc1cc(NC(=O)c2c3c(cn2C)S(=O)(=O)NC2CCN(C(=O)C(=O)NCC(F)(F)F)CC2CO3)ccc1F` (racemic) [Example E73, Cis-N-(4-fluoro-3-methylphenyl)-2-methyl-8-(2-oxo-2-((2,2,2-trifluoroethyl)amino)acetyl)-5,5a,6,7,8,9,9a,10-octahydro-2H-pyrido[4,3-f]pyrrolo[3,4-b][1,4,5]oxathiazocine-1-carboxamide 4,4-dioxide], the EC50 is < 500 nM.

The same test, now with this note: Hepatitis B virus, 96 hours, read-out: HBV inh EC50.
On to `Cc1cc(NC(=O)c2c3c(cn2C)S(=O)(=O)NC2CN(C(=O)C(=O)N[C@H](C)C(F)(F)F)CC2(C)CO3)ccc1F` (stereo in doubt) [Example E26, Cis-N-(4-fluoro-3-methylphenyl)-7,10a-dimethyl-2-(2-oxo-2-(((R)-1,1,1-trifluoropropan-2-yl)amino)acetyl)-2,3,3a,4,10,10a-hexahydro-1H,7H-dipyrrolo[3,4-b:3′,4′-f][1,4,5]oxathiazocine-8-carboxamide 5,5-dioxide], for which the EC50 is < 500 nM.
In the case of `Cc1cc(NC(=O)c2c3c(cn2C)S(=O)(=O)NC2(C)CN(C(=O)C(=O)N[C@H](C)C(F)(F)F)CC2CO3)ccc1F` (stereo in doubt) [Example E27, Cis-N-(4-fluoro-3-methylphenyl)-3a,7-dimethyl-2-(2-oxo-2-(((R)-1,1,1-trifluoropropan-2-yl)amino)acetyl)-2,3,3a,4,10,10a-hexahydro-1H,7H-dipyrrolo[3,4-b:3 ‘,4’-f][1,4,5]oxathiazocine-8-carboxamide 5,5-dioxide], the EC50 is < 500 nM.
The same measure, in the same setting: in the case of `Cc1cc(NC(=O)c2c3c(cn2C)S(=O)(=O)NC2CN(C(=O)C(=O)N[C@H](C)C(F)(F)F)CC2CO3)ccc1F` (stereo in doubt) [Example E30, trans-N-(4-fluoro-3-methylphenyl)-7-methyl-2-(2-oxo-2-(((R)-1,1,1-trifluoropropan-2-yl)amino)acetyl)-2,3,3a,4,10,10a-hexahydro-1H,7H-dipyrrolo[3,4-b:3′,4′-f][1,4,5]oxathiazocine-8-carboxamide 5,5-dioxide] it was < 500 nM.
With `Cc1cc(NC(=O)c2c3c(c(Br)n2C)S(=O)(=O)N[C@H]2CN(C(=O)C(=O)N[C@H](C)C(F)(F)F)C[C@H]2CO3)ccc1F` [Example E52, (3aR,10aR)-6-bromo-N-(4-fluoro-3-methylphenyl)-7-methyl-2-(2-oxo-2-(((R)-1,1,1-trifluoropropan-2-yl)amino)acetyl)-2,3,3a,4,10,10a-hexahydro-1H,7H-dipyrrolo[3,4-b:3′,4′-f][1,4,5]oxathiazocine-8-carboxamide 5,5-dioxide], the EC50 was < 500 nM.
For the compound `Cc1cc(NC(=O)c2c3c(c(C)n2C)S(=O)(=O)N[C@H]2CN(C(=O)C(=O)N[C@H](C)C(F)(F)F)C[C@H]2CO3)ccc1F` [Example E53, (3aR,10aR)—N-(4-fluoro-3-methylphenyl)-6,7-dimethyl-2-(2-oxo-2-(((R)-1,1,1-trifluoropropan-2-yl)amino)acetyl)-2,3,3a,4,10,10a-hexahydro-1H,7H-dipyrrolo[3,4-b:3′,4′-f][1,4,5]oxathiazocine-8-carboxamide 5,5-dioxide], the EC50 was < 500 nM.
Still for that read-out and setting: next, `Cc1cc(NC(=O)c2c3c(cn2C)S(=O)(=O)N[C@H]2CN(C(=O)C(=O)N[C@H](C)C(F)(F)F)C[C@@]2(C)CO3)ccc1F` [Example E74, (3aR,10aR)—N-(4-fluoro-3-methylphenyl)-7,10a-dimethyl-2-(2-oxo-2-(((R)-1,1,1-trifluoropropan-2-yl)amino)acetyl)-2,3,3a,4,10,10a-hexahydro-1H,7H-dipyrrolo[3,4-b:3′,4′-f][1,4,5]oxathiazocine-8-carboxamide 5,5-dioxide]: < 500 nM; `Cc1cc(NC(=O)c2c3c(cn2C)S(=O)(=O)N[C@H]2CN(C(=O)C(=O)N[C@H](C)C(F)(F)F)C[C@@]2(O)CO3)ccc1F` [Example E75, (3aS,10aS)—N-(4-fluoro-3-methylphenyl)-10a-hydroxy-7-methyl-2-(2-oxo-2-(((R)-1,1,1-trifluoropropan-2-yl)amino)acetyl)-2,3,3a,4,10,10a-hexahydro-1H,7H-dipyrrolo[3,4-b:3′,4′-f][1,4,5]oxathiazocine-8-carboxamide 5,5-dioxide]: < 500 nM.

The subject of a further test is HBV.
Assay: not given
To be noted: Phase 1b clinical studies; cited from earlier work.
For `O=C(Nc1cc(F)c(F)c(F)c1)c1ccc(F)c(S(=O)(=O)N2CCC(O)CC2)c1` [NVR3-778], the “HBV DNA” value is “significant reduction” and the “serum HBV RNA” value was “significant reduction”.
